Test results published in patent publication US5853731A, “Thromboxane A2 Receptor antagonism and antioxidant action of cinnamophilin and its derivatives, their pharmaceutical compositions and uses” (National Science Council, priority 1997, dated 1998).
Like-named read-outs stand apart in the source and are kept apart here.

How the values were obtained:
TX synthase = experiment: Large scale screening test: TX synthase inhibition; type: biochemical
rabbit platelets = experiment: Aggregation of washed rabbit platelet suspension induced by AA, PAF, collagen, U-46619, ADP and thrombin; type: cell-based
Description: A. Preparation of aggregation inducing agent
1. Collagen (bovine tendon) in 15 mM aqueous acetic acid was homogenized at 4° C. to form a well dispersed suspension in 1 mg/ml and stocked at -70° C. Before using, it was thawed and well homogenized.
2. PAF was dissolved in CCl4 and stocked at […] Before using, it was diluted with deionized water.
3. […] and sodium arachidonate (AA) were dissolved in deionized water for use.
B. Preparation of platelets
A suspension of platelets was prepared according to the reported method. EDTA (100 mM) and the blood obtained from rabbit's ear vein were mixed in the ratio of 1:4, and immediately centrifuged (120× g) at room temperature for 10 minutes. Platelet-rich plasma was subjected to further centrifuge (500× g) for another 10 minutes. After the plasma was removed, the platelets in the lower layer were suspended in the Tyrode solution containing EDTA (2 mM) and bovine serum albumin (3.5 mg/ml), and subjected to centrifuge (500× g) again for 10 minutes. The platelets obtained were suspended in a Tyrode solution containing no EDTA, and was adjusted to about 4.5×10^8 cells/ml by a cell counter. 1 mM of calcium ion (Ca^2+) was added to the suspension. 30 minutes after the addition, the experiment was conducted. The composition of Tyrode […]: NaCl (136.9), KCl (2.7), NaH2 PO4 (0.4), NaHCO3 (11.9), glucose (11.1).
(§1) C. Platelet aggregation and ATP release reaction test
(§2) The method reported by Born (J. Physiol. 168, 178, 1963) was used to determine the platelet aggregation by a Lumi-aggregometer (Model 1020, Payton, Canada). Platelet suspension (0.4 ml) was added into a small glass tube coated with silicone, and stirred at 900 rpm with a small magnetic stirrer. Unless otherwise specified, the antagonist was added 1 minute before the inducing agent, and all the reactions were carried out at 37° C. The aggregation was calculated by following formula: […]
aggregation (% )=(light absorption before adding inducing agent-light absorption after adding inducing agent)/(light absorption before adding inducing agent-light absorption of Tyrode solution)×100% […]
| Platelets were precincubated with 1a, 1b, 1c, 1e, 2 or DMSO (0.5%, | control) at 37° C. for 3 min, then the inducer was added.

[1] = tested on: human platelet-rich plasma; experiment: Aggregation test of human platelet-rich plasma; type: cell-based; conditions: for IC50: Homo sapiens, Platelet
Description: as §1, §2
aggregation (% )=(light absorption before adding inducing agent-light absorption after adding inducing agent)/(light absorption before adding inducing agent-light absorption of Tyrode solution)×100%
(5 μM), Adrenaline (10 μM),

TXA2 receptor = experiment: Large scale screening test: TXA2 receptor antagonism; type: biochemical
rat thoracic aorta = molecular target: T1, rat thoracic aorta (Rattus norvegicus, UniProt P34978); experiment: Rat aortic contraction caused by U-46619; type: cell-based, Wistar rat; conditions: for activity at 0.3 µM / activity at 1 µM / activity at 3 µM / activity at 10 µM: rat, read-out: Contraction (% of maximal contraction); for activity at 0.3 µM: cinnamophilin 0.3 μM; for activity at 1 µM: cinnamophilin 1 μM; for activity at 3 µM: cinnamophilin 3 μM; for activity at 10 µM: cinnamophilin 10 μM
T1 construct: The thoracic aorta was isolated and excess fat and connective tissue were removed; from tissue; host or cells: thoracic aorta rings of Wistar rats
T1 sequence (P34978 1-341): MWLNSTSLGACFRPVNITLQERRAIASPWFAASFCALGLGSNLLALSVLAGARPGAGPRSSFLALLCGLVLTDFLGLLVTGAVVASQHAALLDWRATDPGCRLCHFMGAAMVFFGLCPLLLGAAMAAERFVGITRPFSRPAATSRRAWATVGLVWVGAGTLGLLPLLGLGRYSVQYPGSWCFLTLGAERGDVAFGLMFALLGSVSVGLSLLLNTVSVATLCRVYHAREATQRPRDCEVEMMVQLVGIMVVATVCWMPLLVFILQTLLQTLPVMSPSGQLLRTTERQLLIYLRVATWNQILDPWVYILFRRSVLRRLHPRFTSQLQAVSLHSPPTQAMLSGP
Description: A. Rat Aortic Contraction
Wistar rats of either sex weighing 250 g to 300 g were killed by a blow to the head. The thoracic aorta was isolated and excess fat and connective tissue were removed. Vessels were cut into rings of about 5 mm in length and mounted in organ baths containing 5 ml Krebs solution of the following composition (mM): NaCl (118.4), KCl (4.7), CaCl (1.9), MgSO4 (1.2), KH2 PO4 (1.2), NaHCO3 (25.0) and glucose (11.7). The tissue bath solution was maintained at 37° C. and gassed with 95% O2 :5% CO2 mixture. Two stainless steel hooks were inserted into the aortic lumen, one was fixed while the other was connected to a transducer. Aortae were equilibrated in the medium for 90 min with three changes of Krebs solution and maintained under an optimal tension of 1 g before specific experimental protocols were initiated.
Contraction was recorded isometrically via a force-displacement transducer connected to a Grass polygraph. Aortae were allowed to preincubate for 15 minutes with cinnamophilin before generating the cumulative concentration-response curve with each agonist for 15-30 min at 3 min intervals. Results are expressed as a percentage of the maximal control response for each agonist.

- IC50 ([1]; human platelet-rich plasma, inducer A-23187 5 μM, read-out: IC50, platelet aggregation): > 30 µM
- IC50 ([1]; human platelet-rich plasma, inducer ADP 5 μM, First Phrase, read-out: IC50, platelet aggregation, first phase): > 30 µM
- IC50 ([1]; human platelet-rich plasma, inducer ADP 5 μM, Second Phrase, read-out: IC50, platelet aggregation, second phase): 6 ± 0.6 µM
- IC50 ([1]; human platelet-rich plasma, inducer U-46619 1 μM, read-out: IC50, platelet aggregation): 3 ± 0.4 µM
- IC50 ([1]; human platelet-rich plasma, inducer adrenaline 10 μM, First Phrase, read-out: IC50, platelet aggregation, first phase): > 30 µM
- IC50 ([1]; human platelet-rich plasma, inducer adrenaline 10 μM, Second Phrase, read-out: IC50, platelet aggregation, second phase): 7.6 ± 0.9 µM
- IC50 ([1]; human platelet-rich plasma, inducer arachidonic acid (AA) 800 μM, read-out: IC50, platelet aggregation): 5 ± 0.4 µM
- IC50 ([1]; human platelet-rich plasma, inducer collagen, read-out: IC50, platelet aggregation): 5.6 ± 0.6 µM
- TXA2 receptor antagonizing property (TXA2 receptor): TXA2 receptor antagonizing properties
- Kb (rat thoracic aorta; against U-46619, 0.5% DMSO as control, read-out: pA2, rat aortic contraction induced by U-46619 (converted)): 0.0501 µM
- activity at 0.3 µM (rat thoracic aorta; U-46619 0.005 μM): 0%
- activity at 0.3 µM (rat thoracic aorta; U-46619 0.01 μM): 8 ± 2%
- activity at 0.3 µM (rat thoracic aorta; U-46619 0.02 μM): 16 ± 4.9%
- activity at 0.3 µM (rat thoracic aorta; U-46619 0.05 μM): 35 ± 2%
- activity at 0.3 µM (rat thoracic aorta; U-46619 0.1 μM): 52 ± 3%
- activity at 0.3 µM (rat thoracic aorta; U-46619 0.2 μM): 65 ± 4%
- activity at 0.3 µM (rat thoracic aorta; U-46619 0.5 μM): 79 ± 2%
- activity at 0.3 µM (rat thoracic aorta; U-46619 1 μM): 85 ± 4%
- activity at 0.3 µM (rat thoracic aorta; U-46619 2 μM): 92 ± 4%
- activity at 1 µM (rat thoracic aorta; U-46619 0.02 μM): 3%
- activity at 1 µM (rat thoracic aorta; U-46619 0.05 μM): 11 ± 2%
- activity at 1 µM (rat thoracic aorta; U-46619 0.1 μM): 22 ± 3%
- activity at 1 µM (rat thoracic aorta; U-46619 0.2 μM): 35 ± 3.2%
- activity at 1 µM (rat thoracic aorta; U-46619 0.5 μM): 53 ± 3.1%
- activity at 1 µM (rat thoracic aorta; U-46619 1 μM): 55 ± 4%
- activity at 1 µM (rat thoracic aorta; U-46619 2 μM): 81 ± 4%
- activity at 1 µM (rat thoracic aorta; U-46619 5 μM): 88 ± 3%
- activity at 3 µM (rat thoracic aorta; U-46619 0.05 μM): 0%
- activity at 3 µM (rat thoracic aorta; U-46619 0.1 μM): 8 ± 3.7%
- activity at 3 µM (rat thoracic aorta; U-46619 0.2 μM): 15 ± 4.3%
- activity at 3 µM (rat thoracic aorta; U-46619 0.5 μM): 34 ± 5.6%
- activity at 3 µM (rat thoracic aorta; U-46619 1 μM): 50 ± 5.6%
- activity at 3 µM (rat thoracic aorta; U-46619 2 μM): 65 ± 5%
- activity at 3 µM (rat thoracic aorta; U-46619 5 μM): 81 ± 3%
- activity at 3 µM (rat thoracic aorta; U-46619 10 μM): 90 ± 3%
- activity at 10 µM (rat thoracic aorta; U-46619 0.2 μM): 6 ± 4.3%
- activity at 10 µM (rat thoracic aorta; U-46619 0.5 μM): 15 ± 3.9%
- activity at 10 µM (rat thoracic aorta; U-46619 1 μM): 31 ± 3.8%
- activity at 10 µM (rat thoracic aorta; U-46619 2 μM): 45 ± 3%
- activity at 10 µM (rat thoracic aorta; U-46619 5 μM): 65 ± 5%
- activity at 10 µM (rat thoracic aorta; U-46619 10 μM): 86 ± 4%
Compound: COc1cc(CC(C)C(C)C(=O)c2ccc(O)c(OC)c2)ccc1O (centres unmarked) [Compound 1, cinnamophilin]
- TX synthase inhibitory property (TX synthase): TX synthase inhibitory
- Aggregation (%) (rabbit platelets; inducer AA (100 μM), conc 5 μM, control 92.1 ± 1.3): 83.8 ± 4.6%
- Aggregation (%) (rabbit platelets; inducer AA (100 μM), conc 10 μM, control 92.1 ± 1.3): 79.0 ± 6.3%
- Aggregation (%) (rabbit platelets; inducer AA (100 μM), conc 20 μM, control 92.1 ± 1.3): 42.4 ± 3.0%
- Aggregation (%) (rabbit platelets; inducer AA (100 μM), conc 50 μM, control 92.1 ± 1.3): 3.8 ± 3.5%
- Aggregation (%) (rabbit platelets; inducer ADP (20 μM), conc 300 μM, control 81.6 ± 3.0): 75.6 ± 9.2%
- Aggregation (%) (rabbit platelets; inducer PAF (2 ng/ml), conc 300 μM, control 91.7 ± 2.0): 83.5 ± 8.0%
- Aggregation (%) (rabbit platelets; inducer U-46619 (1 μM), conc 200 μM, control 89.4 ± 1.2): 22.1 ± 2.4%
- Aggregation (%) (rabbit platelets; inducer collagen (10 μg/ml), conc 50 μM, control 93.6 ± 1.0): 87.0 ± 1.6%
- Aggregation (%) (rabbit platelets; inducer collagen (10 μg/ml), conc 100 μM, control 93.6 ± 1.0): 44.7 ± 10.0%
- Aggregation (%) (rabbit platelets; inducer collagen (10 μg/ml), conc 200 μM, control 93.6 ± 1.0): 0.0 ± 0.0%
- Aggregation (%) (rabbit platelets; inducer thrombin (0.1 U/ml), conc 300 μM, control 94.8 ± 2.0): 94.6 ± 1.4%
- inhibition of U-46619 induced platelet aggregation ([1]; U-46619): potential inhibition
- inhibition of second phase aggregation ([1]; human platelet-rich plasma, ADP and adrenaline): inhibit second phase aggregation
- inhibition of platelet aggregation ([1]; induced by AA, ADP, collagen, U-46619, A-23187): potentially to inhibit the platelet aggregation
